What was measured:
Jurkat (J16) cells = assay: Apoptotic cell death by DNA fragmentation, Jurkat; type: cell-based, human
Procedure: (§1) The human malignant cell lines used in this study are the T cell leukemic cell lines CEM, Molt-4 and Jurkat (J16), the HL cell line KM-H2, the cervix adenocarcinoma cell line HeLa, the melanoma cell line A375, the hepatocellular carcinoma cell line HepG2, the pancreatic carcinoma cell line MiaPaca, the breast cancer cell line MCF-7, the prostatic cancer cell line PC3 and the colon carcinoma cell line HCT116. All cells were cultured in RPMI 1640 or DMEM medium (GIBCO laboratories, Grand Island, USA), supplemented with 10% FCS, 100 Units/ml penicillin (GIBCO), 100 μg/m1 streptomycin (GIBCO) and 2 mM L-glutamine (GIBCO) at 37° C. and 5%. Wogonin (BIOTREND Chemicals AG, Wangen, Switzerland), apigenin, chrysin, luteolin and baicalein (Sigma, St. Louis, USA) were solved in dimethyl sulfoxide (DMSO; Roth, Karlsruhe, Germany) at a stock concentration of 50 mM. Cells were treated with different concentrations of different flavones or ABT-263 (Selleck Chemicals, Houston, USA) for 24 to 48 h. Apoptotic cell death was examined by analysis of DNA fragmentation as previously described 23 (Fas et al.,2006, Blood 108: 3700-6). Results are presented as % specific DNA fragmentation using the formula: (percentage of experimental apoptosis-percentage of spontaneous apoptosis)/(100-percentage of spontaneous apoptosis)×100.

CEM cells = assay: Apoptotic cell death by DNA fragmentation, CEM; type: cell-based, human; conditions: for effect on ABT-263-induced apoptosis: ABT-263 plus 10 μM flavone, 30 h
Procedure: as §1

Molt-4 cells = assay: Apoptotic cell death by DNA fragmentation, Molt-4; type: cell-based, human
Procedure: as §1

Mcl-1 = assay: Western blot analysis of Mcl-1 expression; type: cell-based, human; conditions: for Mcl-1 protein expression: 50 μM flavone
Excerpt: For each sample, 1×10^7 cells were lysed as previously described. 23 Equal amounts of protein were separated on 5-13% SDS-PAGE depending on the molecular sizes of the proteins and blotted onto a nitrocellulose membrane (Amersham Biosciences, Little Chalfon, UK) as previously described. 23 The following antibodies were used: Bad, Bax, Bcl-xL, Bcl-w, XIAP from Cell Signaling Technology, Danvers, USA; Bcl-2 (sc-509) and Mcl-1 (sc-819) from Santa Cruz Biotechnology, Heidelberg, Germany; Tubulin and actin from Sigma, Saint Louis, USA.

[1] = system: hepatocellular carcinoma cell line HepG2; assay: Apoptotic cell death by DNA fragmentation, HepG2; type: cell-based, human; conditions: HepG2; ABT-263 plus 50 μM wogonin, 48 h
Procedure: as §1

[2] = system: colon carcinoma cell line HCT116; assay: Apoptotic cell death by DNA fragmentation, HCT116; type: cell-based, human; conditions: ABT-263 plus 50 μM wogonin, 48 h
Procedure: as §1

[3] = system: breast cancer cell line MCF-7; assay: Apoptotic cell death by DNA fragmentation, MCF-7; type: cell-based, human; conditions: ABT-263 plus 50 μM wogonin, 48 h
Procedure: as §1

melanoma cell line A375 = assay: Apoptotic cell death by DNA fragmentation, A375; type: cell-based, human; conditions: ABT-263 plus 50 μM wogonin, 48 h
Procedure: as §1

[4] = system: prostatic cancer cell line PC3; assay: Apoptotic cell death by DNA fragmentation, PC3; type: cell-based, human; conditions: ABT-263 plus 50 μM wogonin, 48 h
Procedure: as §1

Human platelets = assay: Platelet apoptotic cell death by annexin V/FITC staining; type: cell-based; conditions: ABT-263 with wogonin, 1 h
Procedure: (§2) Normal T cells were isolated from peripheral blood of healthy donors and activated to proliferate as described in the Materials and Methods. The proliferating T cells were treated with different concentrations of ABT-263 in the absence or presence of wogonin as indicated. Apoptotic cell death was determined by DNA fragmentation. Results are presented as pooled data from four independent donors. (B) Proliferating normal T cells express higher levels of Mcl-1 and Bcl-2 than leukemic Jurkat and Molt-4 T cells. Total cell lysates of activated T cells from three healthy donors were compared with leukemic cells for the expression levels of Mcl-1, Bcl-2, Bcl-xL and Bcl-w. CDK6 is known to be over-expressed in many tumor cells and was used as a marker for malignant cells. Representative blots from two independent experiments are shown. […] Human platelets in 10% FCS were treated with different concentrations of ABT-263 in the absence or presence of wogonin as indicated. After 1 h treatment, apoptotic cell death was determine by staining with annexin V/FITC. Results are average of two independent assays.
Human peripheral blood T cells were prepared as described previously 23 and were more than 90% CD3 positive. For generation of proliferating T cells, freshly isolated T cells were cultured at 2×10^6 cells/ml and were activated with 1 mg/ml PHA overnight. […]

[5] = system: cervix adenocarcinoma cell line HeLa; assay: Apoptotic cell death by DNA fragmentation, HeLa; type: cell-based, human; conditions: ABT-263 plus 50 μM wogonin, 48 h
Procedure: as §1

CEM tumors = assay: CEM xenograft in immunodeficient mice; type: in vivo; conditions: Rag2-/-/Il2rg-/- mice, s.c. CEM; ABT-263 50 mg/kg p.o. and/or wogonin 50 mg/kg i.p.
Procedure: Immunodeficient mice (Rag2−/−/II2rg−/−) were implanted subcutaneously in the dorsal flank region with CEM (5×10^7 cells). After the tumors reached to approximate 35 mm3, tumor size matched mice were treated with ABT-263 (50 mg/kg, once in each third or fourth day) in the presence or absence of 50 mg/kg wogonin. ABT-263 was formulated according to the protocol previously described 9 and administered p.o. Wogonin dissolved in DMSO was diluted in sunflower oil and administered i.p. For combination studies, ABT-263 was given 2 h before wogonin. The control group was treated in an analogous manner with the vehicle. The tumor size was measured with a micrometer caliper two to three times weekly and the tumor volume (V) was calculated by the formula V=(width2×length)/2. All protocols using and maintaining animals were approved by the German Animal Protection Authority (Office Regierungsprasidium Karlsruhe) in Karlsruhe.

[6] = system: proliferating normal peripheral blood T cells; assay: Apoptotic cell death by DNA fragmentation, proliferating normal T cells; type: cell-based; conditions: ABT-263 with wogonin, four healthy donors
Procedure: as §2
Human peripheral blood T cells were prepared as described previously 23 and were more than 90% CD3 positive. For generation of proliferating T cells, freshly isolated T cells were cultured at 2×10^6 cells/ml and were activated with […] PHA overnight. Activated T cells were then washed three times and cultured for additional 5 days in the presence of 25 U/ml IL-2. Platelets were prepared as described in Vogler et al., 2011, Blood 117: 7145-54.
Wogonin (BIOTREND Chemicals AG, Wangen, Switzerland), apigenin, chrysin, luteolin and baicalein (Sigma, St. Louis, USA) were solved in dimethyl sulfoxide (DMSO; Roth, Karlsruhe, Germany) at a stock concentration of 50 mM. Cells were treated with different concentrations of different flavones or ABT-263 (Selleck Chemicals, Houston, USA) for 24 to 48 h. Apoptotic cell death was examined by analysis of DNA fragmentation as previously described 23 (Fas et al.,2006, Blood 108: 3700-6). […]

[7] = system: ABT-263-resistant Jurkat (Jurkat-R); assay: Apoptotic cell death by DNA fragmentation, ABT-263-resistant Jurkat; type: cell-based, human; conditions: Jurkat-R; ABT-263 with wogonin
Procedure: (§3) Wogonin (BIOTREND Chemicals AG, Wangen, Switzerland), apigenin, chrysin, luteolin and baicalein (Sigma, St. Louis, USA) were solved in dimethyl sulfoxide (DMSO; Roth, Karlsruhe, Germany) at a stock concentration of 50 mM. Cells were treated with different concentrations of different flavones or ABT-263 (Selleck Chemicals, Houston, USA) for 24 to 48 h. Apoptotic cell death was examined by analysis of DNA fragmentation as previously described 23 (Fas et al.,2006, Blood 108: 3700-6). Results are presented as % specific DNA fragmentation using the formula: (percentage of experimental apoptosis-percentage of spontaneous apoptosis)/(100-percentage of spontaneous apoptosis)×100.

[8] = system: ABT-263-resistant CEM (CEM-R); assay: Apoptotic cell death by DNA fragmentation, ABT-263-resistant CEM; type: cell-based, human; conditions: CEM-R; ABT-263 with wogonin
Procedure: as §3

[9] = Jurkat 16, ABT-199 with wogonin
[10] = ABT-263 plus different concentrations of wogonin, 24 h
[11] = wogonin alone at the concentrations used for combination, 24 h

## CC1(C)CCC(CN2CCN(c3ccc(C(=O)NS(=O)(=O)c4ccc(NCC5CCOCC5)c([N+](=O)[O-])c4)c(Oc4cnc5[nH]ccc5c4)c3)CC2)=C(c2ccc(Cl)cc2)C1 [ABT-199, 4-[4-[[2-(4-chlorophenyl)-4,4-dimethyl-1-cyclohexen-1-yl]methyl]-1-piperazinyl]-N-[[3-nitro-4-[[(tetrahydro-2H-pyran-4-yl)methyl]amino]phenyl]sulfonyl]-2-(1H-pyrrolo[2,3-b]pyridin-5-yloxy)-Benzamide]
Jurkat (J16) cells; Homo sapiens, Jurkat 16, ABT-199 alone, read-out: concentration inducing 50% apoptotic cell death
  EC50: 5 to 10 µM
CEM cells; Homo sapiens, CCRF-CEM, ABT-199 alone, read-out: concentration inducing 50% apoptotic cell death
  EC50: 5 to 10 µM
Molt-4 cells; Homo sapiens, ABT-199 alone, read-out: concentration inducing 50% apoptotic cell death
  EC50: 5 to 10 µM

## O=c1cc(-c2ccc(O)cc2)oc2cc(O)cc(O)c12 [Apigenin]
Mcl-1; CEM, 8 h
  Mcl-1 protein expression: Down-regulation of Mcl-1 protein expression
CEM cells
  effect on ABT-263-induced apoptosis: enhance ABT-263-induced apoptosis in CEM cells in a dose-dependent manner

## O=c1cc(-c2ccccc2)oc2cc(O)c(O)c(O)c12 [baicalein]
Mcl-1; CEM, 8 h
  Mcl-1 protein expression: Down-regulation of Mcl-1 protein expression
CEM cells
  effect on ABT-263-induced apoptosis: enhance ABT-263-induced apoptosis in CEM cells in a dose-dependent manner

## O=c1cc(-c2ccccc2)oc2cc(O)cc(O)c12 [chrysin]
Mcl-1; CEM, 8 h
  Mcl-1 protein expression: Down-regulation of Mcl-1 protein expression
CEM cells
  effect on ABT-263-induced apoptosis: enhance ABT-263-induced apoptosis in CEM cells in a dose-dependent manner

## O=c1cc(-c2ccc(O)c(O)c2)oc2cc(O)cc(O)c12 [luteolin]
Mcl-1; CEM, 8 h
  Mcl-1 protein expression: Down-regulation of Mcl-1 protein expression
CEM cells
  effect on ABT-263-induced apoptosis: enhance ABT-263-induced apoptosis in CEM cells in a dose-dependent manner

## COc1c(O)cc(O)c2c(=O)cc(-c3ccccc3)oc12 [wogonin, 5,7-dihydroxy-8-methoxy-2-phenyl-4H-chromen-4-one]
Jurkat (J16) cells; [9]
  reduction of the ABT-199 dose: approx. 5 fold
  sensitization to ABT-199-mediated apoptosis: sensitized
Jurkat (J16) cells; Jurkat, ABT-263 plus different concentrations of wogonin, 24 h
  effect on killing efficacy of ABT-263: enhanced the killing efficacy of ABT-263 in a dose-dependent manner
Jurkat (J16) cells; Jurkat, in presence of wogonin
  reduction of ABT-263 dose required for inducing 50-70% cell death: approximately 10 times
Jurkat (J16) cells; Jurkat, wogonin alone at the concentrations used for combination, 24 h
  cell death by wogonin alone: only minimal cell death
[1]
  effect on ABT-263-mediated apoptotic cell death: dose-dependent increase
[2]
  effect on ABT-263-mediated apoptotic cell death: dose-dependent increase
Mcl-1; ABT-263-resistant Jurkat and CEM, wogonin
  Mcl-1 expression: significantly inhibited Mcl-1 expression
Mcl-1; CEM, Jurkat and Molt-4, 50 μM wogonin, 8 h
  Mcl-1 expression: down-regulation of Mcl-1 expression
Mcl-1; CEM, Jurkat and Molt-4, 50 μM wogonin, 8 h, listed as Wogonin
  Mcl-1 expression: down-regulates Mcl-1 expression
Mcl-1; all tumor cell lines tested other than MiaPaca, 50 μM wogonin, 8 h
  Mcl-1 expression: down-regulated
[3]
  effect on ABT-263-mediated apoptotic cell death: dose-dependent increase
Melanoma cell line A375
  effect on ABT-263-mediated apoptotic cell death: dose-dependent increase
[4]
  effect on ABT-263-mediated apoptotic cell death: dose-dependent increase
Human platelets
  effect on toxicity of ABT-263 to platelets: did not enhance the toxicity of ABT-263
Human platelets; listed as Wogonin
  effect on toxicity of ABT-263 to platelets: does not enhance the toxicity of ABT-263
CEM cells; ABT-199 with wogonin
  reduction of the ABT-199 dose: approx. 5 fold
  sensitization to ABT-199-mediated apoptosis: sensitized
CEM cells; [10]
  effect on killing efficacy of ABT-263: enhanced the killing efficacy of ABT-263 in a dose-dependent manner
CEM cells; in presence of wogonin
  reduction of ABT-263 dose required for inducing 50-70% cell death: approximately 10 times
CEM cells; [11]
  cell death by wogonin alone: only minimal cell death
[5]
  effect on ABT-263-mediated apoptotic cell death: dose-dependent increase
CEM tumors
  tumor growth / tumor response: no significant inhibition of tumor growth
[6]
  effect on toxicity of ABT-263 to normal proliferating T cells: did not enhance the toxicity of ABT-263
[6]; listed as Wogonin
  effect on toxicity of ABT-263 to normal proliferating T cells: does not potentiate the toxicity of ABT-263
[7]
  re-sensitization to ABT-263-induced apoptotic cell death: re-sensitized to ABT-263 treatment
[8]
  re-sensitization to ABT-263-induced apoptotic cell death: re-sensitized to ABT-263 treatment
Molt-4 cells; ABT-199 with wogonin
  reduction of the ABT-199 dose: approx. 5 fold
  sensitization to ABT-199-mediated apoptosis: sensitized
Molt-4 cells; [10]
  effect on killing efficacy of ABT-263: enhanced the killing efficacy of ABT-263 in a dose-dependent manner
Molt-4 cells; in presence of wogonin
  reduction of ABT-263 dose required for inducing 50-70% cell death: approximately 10 times
Molt-4 cells; [11]
  cell death by wogonin alone: only minimal cell death

Reference: patent US20160158189A1, “SENSITIZATION OF CANCER CELLS TO APOPTOSIS INDUCTION BY FLAVAGLINES AND 5-HYDROXY-FLAVONES” (DEUTSCHES KREBSFORSCHUNGSZENTRUM, priority 2013, published 2016)
